Test results as given in patent publication US10512631B2, “Chalcone compounds” (Beth Israel Deaconess Medical Center, Inc., priority 2015, dated 2019).

Assays:
Type in all cases: cell-based
PC3 = assay: Cytoxicity / crystal violet staining, PC3; conditions: average of triplicates, % of apoptotic cells vs DMSO controls, N.A. = not active at 10 μM
Protocol: (§1) PC3 (provided by Dr. Steven Balk's laboratory in Department of Medicine at Beth Israel Deaconess Medical Center), PANC02 and CRL2119 (provided by Dr. Pankaja Seth's laboratory in Department of Medicine at Beth Israel Deaconess Medical Center), A549 (ATCC) cell lines were cultured according to manufacturer's protocols. Briefly, PC3 were cultured in RPMI medium supplemented with 10% FBS (Atlanta). PANC-2, A549 and CRL2119 were cultured in DMEM High medium supplemented with 10% FBS (Atlanta). Human bronchial epithelial cells (BEC) were cultured in Airway Epithelial Cell Basal Medium with the Bronchial Epithelial cell growth kit (ATCC) according to manufacturer's protocol and used at passages 3-5.
(§2) Cells were seeded at 5×10^3 concentration in 96 well plates and treated with test compounds or DMSO (0.001-10 μM) for 72 hours. Culture medium was removed and cells were stained with crystal violet solution (Sigma-Aldrich) for 15 minutes while shaking at room temperature. Crystal violet was then removed and cells were repeatedly washed in water. Attached cells stained with crystal violet were dried and then resuspended in 10% acetic acid. Absorbance was measured at 562 nm. The intensity of staining corresponded directly to the number of live cells.

[1] = tested on: PC3 cells transfected with siRNA against STMN1; assay: Crystal violet staining of PC3 cells transfected with siRNA against STMN1; conditions: siRNA STMN1 vs control siRNA; 1 μM Compound 6, 1 μM Compound 7, 0.1 μM Compound 8, 72 hours
Protocol: as §2
(§3) siRNA against STMN1 and scramble siRNA were obtained from Darmacon (ONTARGET plus siRNA). PC3 cells were transiently transfected with siRNA against STMN1 or scramble siRNA using Lipofectamine 2000 (Invitrogen) as previously described in Wegiel et al., J. Biol. Chem. 2009, 7; 284(32):21369-78. Twenty four hours post-transfection, cells were split to 96 well plates and treated with test compounds for 72 hours. STMN1 levels were measured by immunoblotting to confirm successful knockdown.

PC3 cells [2] = assay: Immunofluorescence of P-Histone H3 and α-tubulin in PC3 cells (siRNA STMN1 or control)
Protocol: (§4) Immunofluorescence and immunostaining on cell lines and tumor samples were performed as described in Wegiel et al, Cancer research 2013, 73(23), 7009-21. Anti-mouse STMN1, anti-P (Ser10)-Histone H3, and α-tubulin antibody were obtained from Cell Signaling. β-actin antibody was obtained from Sigma-Aldrich. Cells were treated with Compound 6 (1 μM) or DMSO for 48 hours. After immunofluorescence staining, the number of P-Histone H3 was quantified per field of view at 40× magnification using Zeiss Axiovert Microscope.
as §3

STMN1 = STMN1 immunostaining and immunoblotting in PC3 cells; conditions: PC3 cells, 0.01, 0.1 and 1 μM; 30 minutes, 1 hour, 24 hours
Protocol: as §4
Snap-frozen tissue samples were homogenized in ice-cold tissue lysis buffer (250 mM NaCl, 5 mM EDTA, 1% Triton X-100, 10 mM Tris-HCl; pH 7.5) containing the protease inhibitor cocktail Complete Mini (Roche). For co-immunoprecipitation, 200 μg protein lysates in RIPA buffer and the protease inhibitor cocktail were mixed with appropriate antibodies and 30 μl Protein A/G Plus-agarose beads (Santa Cruz Biotechnology) and then rotated for 1 hour at room temperature. The proteins were washed with RIPA buffer and eluted (95° C., 5 min in SDS loading buffer). Immunoblotting was performed as previously described in Chin et al., Proc. Natl. Acad. Sci. USA 2007, 104(12), 5109-14. Antibodies: P (Ser967)-ASK1 (Cell Signaling), Ask1 (Cell Signaling), P-STMN1 (Ser16) (Cell Signaling), STMN1 (Cell Signaling), 13-Actin (Sigma) were used at 1:1000 dilution.

PC3 cells [3] = assay: Immunostaining of α-tubulin and β-actin in PC3 cells; conditions: 24 hours
Protocol: as §4, with “Cells were treated with Compound 6 (1 μM) or DMSO for 48 hours.” left out

A549 cells = assay: Invasion chambers (Transwell, Matrigel); conditions: serum chemoattractants, compared to untreated cells
Protocol: The invasion of A549 cells was measured using Transwell chambers (Chemicon, Millipore, Calif.) according to the manufacturer's protocol. Briefly, A549 cells were treated with test compounds at 1 μM in 500 μl of DMEM medium without FBS for 24 hours. Medium in the upper chamber was serum-free while medium in the lower chamber contained 10% FBS as a source of chemoattractants. Cells that passed through the Matrigel-coated membrane were stained and photographed after 24 hours of incubation. Absorbance was measured at 562 nm by ELISA reader after dissolving of stained cells in 10% acetic acid.

A549 = assay: Cytoxicity / crystal violet staining, A549; conditions: average of triplicates, % of apoptotic cells vs DMSO controls, N.A. = not active at 10 μM
Protocol: as §1, §2

PC3 cells [4] = assay: RT2 profiler PCR array Human Cancer Pathway; conditions: after treatment vs DMSO
Protocol: RT^2 profiler PCR array Human Cancer Pathway was purchased from SA Biosciences. RNA from PC3 cells treated with DMSO or Compound 6 were isolated and prepared for RT-PCR following manufacturer' protocol. Analysis was performed online using the software provided by SA Biosciences.

Compound: Cn1ccc2cc(/C=C3\CCc4ccc(F)cc4C3=O)ccc21 [Compound 6, (2E)-7-fluoro-2-[(1-methyl-1H-indol-5-yl)methylidene]-1,2,3,4-tetrahydronaphthalen-1-one]
- Cytoxicity (% cell killing at 10 μM) PC3 (PC3): 49%
- cell death in response to compound in the absence of STMN1 [1]: attenuated in the absence of STMN1
- number of cells undergoing mitosis (P-Histone H3) and normal mitotic spindles (α-tubulin) (PC3 cells [2]; 1 μM): blocked number of cells undergoing mitosis
- microtubule destabilization, aberrant mitotic spindle and P-Histone H3 positive cells in the absence of STMN1 (PC3 cells [2]; siRNA against STMN1, 1 μM): in part reversed
- STMN1 level by immunoblotting (STMN1): very early (30 minutes to 1 hour) stabilization of STMN1
- β-actin microfilament cytoskeleton (PC3 cells [3]; 1 μM): disintegrated β-actin microfilament cytoskeleton
- microtubule stability (α-tubulin immunostaining) (PC3 cells [3]; Compound 6 1 μM or docetaxel 20 nM): suppressed mitotic spindle formation, as well as accumulation of α-tubulin and microtubules
- invasion / migration through matrigel coated chambers (A549 cells): strongly inhibited invasion
- Cytoxicity (% cell killing at 10 μM) A549 (A549): 47%
- adrenomedullin mRNA elevation (PC3 cells [4]): more than 4 fold
- stathmin (STMN1) mRNA elevation (PC3 cells [4]): more than 4 fold
